Laboratory results: BindingDB's records for doi:10.1021/acs.jmedchem.5b01801 (University of Liverpool, 2016)

Assay: Inhibition of Cyclophilin D (unknown origin) activity preincubated for 15 mins followed Suc-AAPF-pNA substrate addition by chymotrypsin coupled based spectrophotometry assay

Ki [µM]	SMILES
4.9	Nc1ccc(CNC(=O)NCC(=O)N2CCCC2)cc1
2.6	CCOC(=O)CNC(=O)NCc1ccc(NC(C)=O)cc1
